Experimental data taken from patent publication US6469027B1, “N-methyl-D-aspartate (NMDA) receptor blockers for the prevention of atherosclerosis” (The Board of Regents of the University of Nebraska, priority 1996, dated 2002).
“Also recorded” adds a separate entry of the source. Where two headings read alike, the source gives them in different places.

Assays:
[1] = test system: c-myb; test: c-myb expression in N-VSMC (RT-PCR, immunoprecipitation and western blot); format: cell-based, chicken; details: for effect on homocysteine-induced c-myb induction: 200 μM H[cys], 50 μM Mk-801 or 1 mM CGS19755, 24 hours
Experimental: FIGS. 3A, 3B and 3C are RNA blot analyses of c-fos and c-myb mRNA isolated from N-VSMC cultures. Cultures were incubated in the absence and presence of 200μM H[cys] for 0, (lane 1); 15 min, (lane 2); 30 min, (lane 3); 45 min, (lane 4) and 60 min, (lane 5); and analyzed for c-fos expression. In FIG. 3B, the time course of c-myb MRNA induction in the presence of 200μM H[cys] for 0 h, (lane 1); 8 h, (lane 2); 16 h, (lane 3); 24 h, (lane 4). The c-fos transcripts were analyzed by northern blot and normalized to β actin expression. The amount of c-myb mRNA levels were normalized to estrogen receptor (ER) transcripts as determined by RT-PCR. […] The amount of c-myb mRNA levels were normalized to estrogen receptor (ER) transcripts as determined by RT-PCR. The amount of specific radiolabeling in the autoradiograph was quantified by scanning densitometry. The size of the c-Myb protein is 75 kilodaltons. The 75 kilodalton band is defined as c-Myb because immunoprecipitation of this protein was not detected in the presence of synthetic polypeptide [[…] encoded by sequences 1080-1133].
FIG. 4 is a graph illustrating the analysis of c-myb synthesis in response to NMDA receptor antagonist, Mk-801 and CGS19755. Immunoprecipitation and western blotting of radiolabeled c-Myb from N-VSMC treated with 200μMH[cys] in the presence and absence of 50 μM Mk-801 or 1 mM CGS19755. Cell cultures were treated with and without H[cys] for 24 hours, extracts were immunoprecipitated with anti c-myb IgG and samples were separated by SDS-PAGE gels and western blotted. The amount of specific radiolabeling in the autoradiograph was quantified by scanning densitometry. The size of the c-Myb protein is 75 kilodaltons. The 75 kilodalton band is defined as c-Myb because immunoprecipitation of this protein was not detected in the presence of synthetic polypeptide [I13-[…] encoded by sequences 1080-1133].
RNA Blot Analysis: Total RNA was isolated from VSMC derived from thoracic and abdominal aorta by homogenization, and lysis with guanidinium isothiocyanate was followed by phenol-chloroform extraction. Ten micrograms of total RNA per lane was separated in a 1.5% agarose-formaldehyde gel, and the RNA was transferred by capillary transfer to a 0.45 μm nylon membrane. Filters were hybridized as previously with cDNAs labeled with [^32P]deoxycytidine5′-triphosphate to specific activities of approximately 2×10^9 cpm/μg using a random prime labeling kit (Boehringer Mannheim Biochemicals, Indianapolis, Ind.). The probes included chicken c-fos, Bactin, estrogen receptor (ER) and c myb.
Reverse Transcriptase-Polymerase Chain Reaction: Reverse transcription of 4 to 10,000 nanograms (ng) of RNA using 10 picomoles (pm) of hexamer primers was performed for 90 minutes (min) at 37° C. using 200 units superscript reverse transcriptase (Gibco BRL), in 50 mM Tris, pH, 8.2, 75 Mm KC1, 3 mM MgCl2, 10 mM dithiothreitol (DTT), 1 unit/μ1 RNasin (Promega), and 1 mM each of DATP, dCTP, dGTP, and dTTP. The samples were heated at 95° C. for 5 min to terminate the reverse transcription. The resulting cDNA was treated with 1 unit of […] at 37° C. for 20 min. A 5% fraction of the cDNA was subjected to PCR using c-myb upstream (5′ggTCCTTTgAAgATgCTgCC3′) and downstream(5′[…]gAgTCCgggTTg3′) primers; estrogen receptor (ER) (5′ggACTgCCAgCTgCCgATCTT3′) and (5′CTCACgAATgTggCgCCT3′) primers; β actin (5′AAgAggTAATCCTgACCCCTgAA3′) and (5′ACCCTgACCATCAgggAgTTCA3′) primers. PCR was performed using 0.25 μM of each primer, 3 μM cDNA, 0.2 mM of each deoxynucleotide triphosphate, 75 mM KC1, 1.5 mM MgCl2 and 0.5 unit Taq polymerase (Perkin Elmer; Cetus) in 10 mM Tris-HC1, pH 8.3 with total volume of 100 μl. […] PCR products were analyzed by electrophoresis in 1.5% agarose gels stained with ethidium bromide. PCR amplifications of all target templates and controls were run in parallel or on the same sample. […]

[2] = test system: N-VSMC; test: Cell proliferation (cell number) of N-VSMC cultures; format: cell-based, chicken; details: for effect on increase in cell number in the presence of H[cys]: 1% FBS and 100 μM H[cys]; for cell damage after treatment for ten days: low levels of PKC inhibitors, growth after removal
Experimental: FIGS. 5A and 5B are graphs illustrating cell growth and DNA synthesis of N-VSMC cultures. (A) Cells were cultured in M199 supplemented with 1% FBS in the presence and absence of 100 μM H[cys]. The medium was renewed every three days and cell numbers were determined by Coulter counter or emocytometer. Each point represents the mean of quadruplicate samples counted six times. (B) Cells were grown to confluency, growth arrested in M199 and 1 μg/ml of bovine serum albumin for two days. Cultures were exposed to various concentrations of H[cys] (0.01-1000 μM) for 30 h, pulse labeled for 6 h with 2 μCi/ml of [^3H]thymidine. The amount of [^3H]thymidine incorporation was determined by scintillation spectrophotometry. Results are shown as the mean of ±S.E.M.
FIGS. 7A-7C are graphs illustrating the effect of H[cys] on diacylglycerol content in N-VSMC. (A) Time course of changes of membrane diacylglycerol content cell treated with 100μM H[cys] for the various times. Cells were recovered, membrane lipids extracted and diacylglycerol amounts determined as described in Methods. Results are expressed as the mean ± standard error of quadruplicate incubations from six independent experiments. (B) Effects of varying concentrations of H[cys] on diacylglycerol synthesis. Cells were treated for 30 min with different concentrations of H[cys] and membrane lipids were isolated and the diacylglycerol content determined. (C) Effect of PKC inhibitors on H[cys] mediated cell proliferation. N-VSMC cultures were grown in 1% FBS and 100 μM H[cys] in the presence and absence of staurosporine and cheleyrithrine chloride for the times (days-d) indicated. Cells were counted in quadruplicate in a Coulter counter every three days. Values represent the mean ±S.D. from four independent experiments.
(§1) Smooth Muscle Culture: The thoracic (N) and abdominal (M) aorta of normal 16 and 18-day embryos were cleaned of fat, and the intima-media was isolated from the adventitia. The intima-media was enzymatically dispersed into a single cell suspensions by a combination of collagenase and elastase followed by trypsin. VSMC were placed in primary culture at a constant density of 2×10^4 cells/cm^2 in multiwell plates or 100 mm culture plates in Medium 199 supplemented with 10% fetal bovine serum (FMS) and 2 mM glutamine, in an atmosphere of 95% air: 5% Co2 at 37° C. Primary cultures were grown for 7 days before they were seeded into first passage at the same cell density and grown to confluence. Experiments were carried out between passages 3-6. Experimental conditions for all cells included 48 h in Medium 199 supplemented with 1% FBS prior to initiating and experiment.

[3] = test system: TA-VSMCs; test: [3H]thymidine labeling (DNA synthesis) in TA-VSMCs; format: cell-based
Source text: Effect of calcium channel activation on DNA synthesis. Effect of glutamate receptor calcium channels and L-type calcium channels activation was examined by measuring [^3H]thymidine labeling.

[4] = test system: c-myb; test: c-myb expression in TA-VSMCs; format: cell-based; details: NMDA receptor blockers
[5] = test system: N-VSMC; test: [3H]thymidine incorporation (DNA synthesis) in N-VSMC cultures; format: cell-based, chicken
Experimental: FIG. 1 is a graph illustrating homocysteine's effects on the growth of VSMC cultures. Confluent N-VSMC cultures were growth arrested by incubating cells with M199 medium containing 1 μg/ml BSA for 48 h, exposed to various concentrations of H[cys] (0.01-4000μM) for 30 h, pulse labeled for 6 h with 2 μCi/ml [^3H]-thymidine, and cell monolayers were washed twice with cold (0° C.) 10% trichloroacetic acid (TCA). The amount of [^3H]-thymidine incorporation was determined by scintillation spectrophotometry. Results are shown as the means of ±S.D.
FIGS. 2A-2C are graphs illustrating the effects of glutamate, homocysteic acid and NMDA on DNA synthesis in N-VSMC. N-VSMC were cultured and serum-deprived as described in “Experimental Procedures.” Cultures were treated with various concentrations of homocysteic acid (2A), NMDA (2B), or L-glutamate (2C) for 30 and pulsed 6h with [^3H] thymidine. All values are expressed as ±S.D. of six independent experiments completed in quadruplicate.
as §1
DNA Synthesis: Growth factors were added directly to quiescent VSMCs in Medium 199 as described above. The cells were pulsed between 4-6 h with a final concentration of 2-5 μCi/ml [^3H]thymidine added at the times and for the periods indicated in the figure legends. The cells were washed, and the incorporation of [^3H]thymidine into acid insoluble material was determined as previously described. Den-Heijer, M. et al. (1996), Hyperhomocystinemia as a risk factor for deep-vein thrombosis. N. Eng. J. Med. 334(12):759-762.

[6] = high doses; cited from earlier work
[7] = test system: VSMC; details: low concentrations
[8] = test system: Thoracic aorta VSMC from E14 embryos; test: Intracellular Ca++ by Fura 2 fluorometry; format: cell-based, chicken; details: 15 min pretreatment
Experimental: FIGS. 8A and 8B are graphs illustrating E14 embryonic neural crest-derived response to Hcy. (A) Normal E14 cell response; (B) Ca++ influx is prevented by 15 min pretreatment with NMDA receptor blocker MK801, which acts at the NMDA receptor calcium channel.
The most common signaling device for mitosis is calcium influx. Therefore, the inventors measured the change in intracellular Ca^++ by Fura 2 fluorometry. Thoracic aorta VSMC from E14 embryos were harvested and grown on coverslips using the procedure set forth above. Fura 2 was added during 45 minutes at room temperature. Then the cover slips were placed in a photometer. Fura 2 was excited at 350 and 380 nm with a xenon light source, appropriate monochromators and a chopper (Deltascan, Princeton). Emitted signals passed through a 510±20 band pass filter. When the cells were treated with a solution of 200 μM Hcy, there was a rapid flux of Ca^++ that reached a plateau in about 50 seconds, and remained elevated for the duration of the 500 sec measurement interval as shown in FIGS. 8A and 8B. Similar results have been found with adult rabbit aortic smooth muscle cells, as set forth below.

O=C(O)[C@@H]1C[C@H](CP(=O)(O)O)CCN1 [CGS 19755]
effect on homocysteine-induced c-myb induction [1]: blocked
effect on homocysteine-induced c-myb induction ([1]; listed as CGS19755): block
effect on homocysteine-induced cell proliferation [2]: inhibited; also recorded: no increase in cell proliferation
effect on homocysteine-induced cell proliferation ([2]; listed as CGS19755): block
effect on NMDA and homocysteine DNA synthesis responses [3]: blocked
effect on homocysteine effect on c-myb expression [4]: blocked

N[C@@H](CCC(=O)O)C(=O)O [glutamate, L-glutamate]
activation of the same responses as H[cys] [5]: do not significantly activate
[3H] thymidine incorporation stimulated ([5]; 10 mM): 2 fold

O=C(O)CN(CCOCCOCCN(CC(=O)O)CC(=O)O)CC(=O)O [EGTA]
effect on stimulation of DNA synthesis ([3]; chelation of extra cellular Ca2+ by addition to the medium): prevented

N[C@@H](CCS(=O)(=O)O)C(=O)O [homocysteic acid]
[3H] thymidine incorporation stimulated ([5]; 1 mM): 2 fold

COc1ccc2c(c1)[C@]13CCCC[C@@H]1[C@H](C2)N(C)CC3 [dextromethorphan]
side effects [6]: drowsiness, nausea, and decreased coordination

COc1ccc2c(c[n+](C)c3c4cc5c(cc4ccc23)OCO5)c1OC.[Cl-] [cheleyrthrine chloride]
effect on increase in cell number in the presence of H[cys] [2]: blocked
cell damage after treatment for ten days [2]: did not permanently damage the cells

CCO [ethanol]
effect on pharmacological effect of homocysteine in VSMC [7]: completely blocked

C[C@]12N[C@H](Cc3ccccc31)c1ccccc12 [MK-801]
effect on homocysteine-induced c-myb induction [1]: completely suppressed; also recorded: block
effect on homocysteine-induced cell proliferation [2]: inhibited
effect on homocysteine-induced cell proliferation ([2]; listed as Mk-801): block
effect on Hcy-induced Ca++ influx [8]: prevented
effect on NMDA and homocysteine DNA synthesis responses [3]: blocked
effect on homocysteine effect on c-myb expression [4]: blocked

CN[C@H](CC(=O)O)C(=O)O [NMDA, N-methyl D-aspartate acid]
activation of the same responses as H[cys] [5]: do not significantly activate
[3H] thymidine incorporation stimulated ([5]; 10 mM): 2 fold
expression of Myb, agonist per se ([1]; embryonic smooth muscle cells): did not induce
[3H] thymidine increased ([3]; incubated with NMDA): 2 fold

CN[C@@H]1C[C@H]2O[C@@](C)([C@@H]1OC)n1c3ccccc3c3c4c(c5c6ccccc6n2c5c31)C(=O)NC4 [staurosporine]
effect on increase in cell number in the presence of H[cys] [2]: blocked
cell damage after treatment for ten days [2]: did not permanently damage the cells
